The results in this text go back to patent publication US20250296971A1, “GASTRIC INHIBITORY PEPTIDE RECEPTOR LIGANDS” (priority 2021, published 2025).

This test concerns the target T1, GIPR (CHO-K1-hGIPR cells) (Homo sapiens, UniProt P48546).
T1 construct: host or cells: CHO-K1
T1 sequence (P48546 22-466): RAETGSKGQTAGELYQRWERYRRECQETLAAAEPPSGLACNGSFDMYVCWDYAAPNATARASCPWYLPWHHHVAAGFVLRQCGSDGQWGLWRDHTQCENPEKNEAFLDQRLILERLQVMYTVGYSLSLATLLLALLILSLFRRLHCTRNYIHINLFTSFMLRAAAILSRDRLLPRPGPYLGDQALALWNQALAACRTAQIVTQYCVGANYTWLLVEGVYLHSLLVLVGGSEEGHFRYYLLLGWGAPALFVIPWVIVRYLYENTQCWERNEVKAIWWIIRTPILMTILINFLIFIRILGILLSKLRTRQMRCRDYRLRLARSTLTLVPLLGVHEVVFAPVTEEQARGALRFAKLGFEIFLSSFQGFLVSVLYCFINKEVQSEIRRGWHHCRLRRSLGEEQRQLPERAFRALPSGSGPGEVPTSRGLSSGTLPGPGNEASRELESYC
Briefly: FACS binding assay. To be noted: competition with 20 nM GIP-057, 4° C., 1 hour. Put shortly:
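Peptide binding read by flow cytometry as APC-channel median fluorescence, fitted with a four-parameter logistic to yield EC50 or IC50. Cells were hGIPR-transfected CHO-K1 in PBS with 1% FCS, detected with 1 μg/mL APC-streptavidin, 30 min on ice.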

Where two headings read alike, the source gives them in different places. *1 amine or outer side, *2 acyl side, *3 side chain or, on linkers, in order; H or OH if unused. Where a SMILES comes first, the peptide text is derived from it. Bridges are numbered along the chain shown (N, C = ends). [ ]: non-standard residue; d: D form. The star is where a group is joined. X17 = O=C(CC[C@H](NC(=O)CN1CCN2CCN3CCN(CC1)CC(=O)[O][Lu]([O]C(=O)C2)[O]C(=O)C3)C(=O)*)NC[C@H](O)[C@@H](O)[C@H](O)[C@H](O)CO; X20 = O=C(CC[C@H](NC(=O)CN1CCN2CCN3CCN(CC1)CC(=O)[O][Ga]([O]C(=O)C2)[O]C(=O)C3)C(=O)*)NC[C@H](O)[C@@H](O)[C@H](O)[C@H](O)CO; DOTA(Ga) = O=C1CN2CCN3CCN(CC(=O)*)CCN(CC2)CC(=O)[O][Ga]([O]1)[O]C(=O)C3; DOTA(Lu) = O=C1CN2CCN3CCN(CC(=O)*)CCN(CC2)CC(=O)[O][Lu]([O]1)[O]C(=O)C3; X27 = O=C1CN2CCN3CCN(CC(=O)*)CCN(CC2)CC(=O)[O][Eu]([O]1)[O]C(=O)C3; NH(1-deoxy-D-glucityl) = OC[C@@H](O)[C@@H](O)[C@H](O)[C@@H](O)CN*; Trp(5-Cl) = N[C@@H](Cc1c[nH]c2ccc(Cl)cc12)C(=O)O; Pyridine(2,6-diCH2) = c1cc(C[*:1])nc(C[*:2])c1; Pro(4R-NH2) = N[C@H]1CN[C@H](C(=O)O)C1; Glutaryl = O=C(CCCC(=O)[*:2])[*:1]; Hyp = O=C(O)[C@@H]1C[C@@H](O)CN1; X1 = O=C(CN1CCC(N[*:1])CC1)[*:2]; Api = NC1(C(=O)O)CCNCC1; Thp = NC1(C(=O)O)CCOCC1

In the case of `CC[C@H](C)[C@@H]1NC(=O)[C@H](CC(C)C)NC(=O)C2(CCN(C(=O)[C@H](CCC(=O)NC[C@H](O)[C@@H](O)[C@H](O)[C@H](O)CO)NC(=O)CN3CCN4CCN5CCN(CC3)CC(=O)[O][Ga]([O]C(=O)C4)[O]C(=O)C5)CC2)NC(=O)[C@@H](NC(=O)[C@@H](CC(C)C)NC(=O)[C@H](CCC(=O)O)NC(=O)[C@@H]2C[C@@H](N)CN2C(=O)[C@H](Cc2c[nH]c3ccc(Cl)cc23)NC(=O)[C@H](Cc2c[nH]c3ccccc23)NC(=O)[C@H](CC(=O)O)NC(=O)CN2CCC(NC(=O)CCCC(=O)NC[C@H](O)[C@@H](O)[C@H](O)[C@H](O)CO)CC2)CSCc2cccc(n2)CSC[C@@H](C(=O)NC2CCN(CC(=O)N[C@H](CCC(=O)NC[C@H](O)[C@@H](O)[C@H](O)[C@H](O)CO)C(N)=O)CC2)NC1=O` [GIP-059, AGLU-Glutar-APAc-Asp-Trp-5Clw-Tap-Glu-leu-[Cys(2Lut)-Apc(GaDOTA-glu(AGLU))-Leu-Ile-Cys]-APAc-glu(AGLU)-NH2] ({NH(1-deoxy-D-glucityl)-Glutaryl}-[X1]DW[Trp(5-Cl)][Pro(4R-NH2)]E[dL]C[Api](X20)LIC[X1][dE](NH(1-deoxy-D-glucityl))-NH2; linker 8-12 via Pyridine(2,6-diCH2)), the IC50 (pIC50 Category) is < 10 nM. In the case of `CC[C@H](C)[C@@H]1NC(=O)[C@H](CC(C)C)NC(=O)C2(CCN(C(=O)[C@H](CCC(=O)NC[C@H](O)[C@@H](O)[C@H](O)[C@H](O)CO)NC(=O)CN3CCN4CCN5CCN(CC3)CC(=O)[O][Lu]([O]C(=O)C4)[O]C(=O)C5)CC2)NC(=O)[C@@H](NC(=O)[C@@H](CC(C)C)NC(=O)[C@H](CCC(=O)O)NC(=O)[C@@H]2C[C@@H](N)CN2C(=O)[C@H](Cc2c[nH]c3ccc(Cl)cc23)NC(=O)[C@H](Cc2c[nH]c3ccccc23)NC(=O)[C@H](CC(=O)O)NC(=O)CN2CCC(NC(=O)CCCC(=O)NC[C@H](O)[C@@H](O)[C@H](O)[C@H](O)CO)CC2)CSCc2cccc(n2)CSC[C@@H](C(=O)NC2CCN(CC(=O)N[C@H](CCC(=O)NC[C@H](O)[C@@H](O)[C@H](O)[C@H](O)CO)C(N)=O)CC2)NC1=O` [GIP-061, AGLU-Glutar-APAc-Asp-Trp-5Clw-Tap-Glu-leu-[Cys(2Lut)-Apc(LuDOTA-glu(AGLU))-Leu-Ile-Cys]-APAc-glu(AGLU)-NH2] ({NH(1-deoxy-D-glucityl)-Glutaryl}-[X1]DW[Trp(5-Cl)][Pro(4R-NH2)]E[dL]C[Api](X17)LIC[X1][dE](NH(1-deoxy-D-glucityl))-NH2; linker 8-12 via Pyridine(2,6-diCH2)), the IC50 (pIC50 Category) is < 10 nM. Take `CC[C@H](C)[C@@H]1NC(=O)[C@H](CC(C)C)NC(=O)C2(CCOCC2)NC(=O)[C@@H](NC(=O)[C@@H](CC(C)C)NC(=O)[C@H](CCC(=O)O)NC(=O)[C@@H]2C[C@@H](O)CN2C(=O)[C@H](Cc2c[nH]c3ccc(Cl)cc23)NC(=O)[C@H](Cc2c[nH]c3ccccc23)NC(=O)[C@H](CC(=O)O)NC(=O)CN2CCC(NC(=O)[C@@H](CCC(=O)NC[C@H](O)[C@@H](O)[C@H](O)[C@H](O)CO)NC(=O)CN3CCN4CCN5CCN(CC3)CC(=O)[O][Lu]([O]C(=O)C4)[O]C(=O)C5)CC2)CSCc2cccc(n2)CSC[C@@H](C(=O)NC2CCN(CC(=O)N[C@H](CCC(=O)NC[C@H](O)[C@@H](O)[C@H](O)[C@H](O)CO)C(N)=O)CC2)NC1=O` [GIP-062, LuDOTA-glu(AGLU)-APAc-Asp-Trp-5Clw-Hyp-Glu-leu-[Cys(2Lut)-Thp-Leu-Ile-Cys]-APAc-glu(AGLU)-NH2] ({DOTA(Lu)}-[dE](NH(1-deoxy-D-glucityl))[X1]DW[Trp(5-Cl)][Hyp]E[dL]C[Thp]LIC[X1][dE](NH(1-deoxy-D-glucityl))-NH2; linker 9-13 via Pyridine(2,6-diCH2)): the IC50 (pIC50 Category) is < 10 nM. `CC[C@H](C)[C@@H]1NC(=O)[C@H](CC(C)C)NC(=O)C2(CCOCC2)NC(=O)[C@@H](NC(=O)[C@@H](CC(C)C)NC(=O)[C@H](CCC(=O)O)NC(=O)[C@@H]2C[C@@H](O)CN2C(=O)[C@H](Cc2c[nH]c3ccc(Cl)cc23)NC(=O)[C@H](Cc2c[nH]c3ccccc23)NC(=O)[C@H](CC(=O)O)NC(=O)CN2CCC(NC(=O)[C@@H](CCC(=O)NC[C@H](O)[C@@H](O)[C@H](O)[C@H](O)CO)NC(=O)CN3CCN4CCN5CCN(CC3)CC(=O)[O][Eu]([O]C(=O)C4)[O]C(=O)C5)CC2)CSCc2cccc(n2)CSC[C@@H](C(=O)NC2CCN(CC(=O)N[C@H](CCC(=O)NC[C@H](O)[C@@H](O)[C@H](O)[C@H](O)CO)C(N)=O)CC2)NC1=O` [GIP-064, Europium-Complex of DOTA-glu(AGLU)-APAc-Asp-Trp-5Clw-Hyp-Glu-leu-[Cys(2Lut)-Thp-Leu-Ile-Cys]-APAc-glu(AGLU)-NH2] (X27-[dE](NH(1-deoxy-D-glucityl))[X1]DW[Trp(5-Cl)][Hyp]E[dL]C[Thp]LIC[X1][dE](NH(1-deoxy-D-glucityl))-NH2; linker 9-13 via Pyridine(2,6-diCH2)): where the note is “pIC50 Category”, the IC50 is < 10 nM.

As to `CC[C@H](C)[C@@H]1NC(=O)[C@H](CC(C)C)NC(=O)C2(CCN(C(=O)CN3CCN4CCN5CCN(CC3)CC(=O)[O][Lu]([O]C(=O)C5)[O]C(=O)C4)CC2)NC(=O)[C@@H](NC(=O)[C@@H](CC(C)C)NC(=O)[C@H](CCC(=O)O)NC(=O)[C@@H]2C[C@@H](N)CN2C(=O)[C@H](Cc2c[nH]c3ccc(Cl)cc23)NC(=O)[C@H](Cc2c[nH]c3ccccc23)NC(=O)[C@H](CC(=O)O)NC(=O)CCCC(=O)NC[C@H](O)[C@@H](O)[C@H](O)[C@H](O)CO)CSCc2cccc(n2)CSC[C@@H](C(=O)NC2CCN(CC(=O)N[C@H](CCC(=O)NC[C@H](O)[C@@H](O)[C@H](O)[C@H](O)CO)C(N)=O)CC2)NC1=O` [GIP-067, AGLU-Glutar-Asp-Trp-5Clw-Tap-Glu-leu-[Cys(2Lut)-Apc(LuDOTA)-Leu-Ile-Cys]-APAc-glu(AGLU)-NH2] ({NH(1-deoxy-D-glucityl)-Glutaryl}-DW[Trp(5-Cl)][Pro(4R-NH2)]E[dL]C[Api](DOTA(Lu))LIC[X1][dE](NH(1-deoxy-D-glucityl))-NH2; linker 7-11 via Pyridine(2,6-diCH2)), the “pIC50 Category” value was “A (pIC50 values>8.0)”. Regarding `CC[C@H](C)[C@@H]1NC(=O)[C@H](CC(C)C)NC(=O)C2(CCN(C(=O)CN3CCN4CCN5CCN(CC3)CC(=O)[O][Ga]([O]C(=O)C5)[O]C(=O)C4)CC2)NC(=O)[C@@H](NC(=O)[C@@H](CC(C)C)NC(=O)[C@H](CCC(=O)O)NC(=O)[C@@H]2C[C@@H](O)CN2C(=O)[C@H](Cc2c[nH]c3ccc(Cl)cc23)NC(=O)[C@H](Cc2c[nH]c3ccccc23)NC(=O)[C@H](CC(=O)O)NC(=O)CCCC(=O)NC[C@H](O)[C@@H](O)[C@H](O)[C@H](O)CO)CSCc2cccc(n2)CSC[C@@H](C(=O)NC2CCN(CC(=O)N[C@H](CCC(=O)NC[C@H](O)[C@@H](O)[C@H](O)[C@H](O)CO)C(N)=O)CC2)NC1=O` [GIP-070, AGLU-Glutar-Asp-Trp-5Clw-Hyp-Glu-leu-[Cys(2Lut)-Apc(GaDOTA)-Leu-Ile-Cys]-APAc-glu(AGLU)-NH2] ({NH(1-deoxy-D-glucityl)-Glutaryl}-DW[Trp(5-Cl)][Hyp]E[dL]C[Api](DOTA(Ga))LIC[X1][dE](NH(1-deoxy-D-glucityl))-NH2; linker 7-11 via Pyridine(2,6-diCH2)), under “read-out: pIC50 Category (converted)”, the IC50 is < 10 nM.
